# According to US20220017572A1, “GEMINOID LIPOPEPTIDE COMPOUNDS AND THEIR USES” (Erasmus University Medical Center Rotterdam, priority 2016, published 2022):
# Residues, ends and D or L forms follow the SMILES beside them. C16 = C16 alkyl chain at peptide end (geminoid)
# Assays:
# dengue 2 protease [1] = target: T1, dengue 2 protease (Dengue virus type 2, UniProt P14340); assay: Dengue 2 protease inhibition in presence of Triton X-100 (detergent test, Nature Protocol); format: biochemical, dengue 2 virus; conditions: 0.05% Triton X-100; for Activity with 0.05% Triton: initial activity in UAF/min
# T1 construct: The active site of the dengue protease is in the N-terminal part of NS3
# T1 sequence (P14340 1476-1653): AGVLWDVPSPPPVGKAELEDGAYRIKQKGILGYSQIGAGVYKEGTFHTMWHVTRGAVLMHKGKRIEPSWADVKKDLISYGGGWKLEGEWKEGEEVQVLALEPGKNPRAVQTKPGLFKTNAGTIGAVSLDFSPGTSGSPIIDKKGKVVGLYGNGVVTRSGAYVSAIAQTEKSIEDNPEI
# Text: A further investigation of the interactions of the geminoid inhibitors with biological membranes and with membrane-bound proteases is needed. […] The preparation and tests of peptides symmetrically, asymmetrically and singly alkylated with saturated, short (C6), and unsaturated (C18:1) alkyl tails are in progress.
# dengue 2 protease [2] = target: T1, dengue 2 protease; assay: Dengue 2 protease inhibition, hydrolysis of Z-RR-MCA; format: biochemical, dengue 2 virus; set-up: Activity with inhibitors: unit not given here; conditions: for activity at 5 µM: 5 μM inhibitor; for activity at 10 µM: 10 μM inhibitor; for activity at 15 µM: 15 μM inhibitor; for Activity with inhibitors: 25 μM of inhibitor, 10 μM Z-RR-MCA, pH 9.0, 37° C., initial activity in UAF/min; for activity at 40 µM: 40 μM inhibitor
# Experimental: The active site of the dengue protease is in the N-terminal part of NS3 which is also a serine protease with catalytic triad Asp79-His51-Ser135, but requires […] (CF40) for activity; the inhibition reported here was studied on a […] (CF40-GGGGSGGGG-NS3; (SEQ ID NO:54)) which has also been structurally characterized [Erbel et al., 2006; Luo et al. 2008].
# (§1) Substrate was added in a concentration 10 times the Km, and the inhibitor compounds of type C (C16-KGnK-C16, C16-KAnK-C16, and C16-RAnR-C16) were added in increasing concentrations (1.0, 5.0, 10.0, 20.0, 40.0 μL) from a stock solution of 2 mg in 1 mL DMSO. The residual activity was measured in a Hitachi F2500 spectrofluorimeter, and plots were fitted using the Grafit® software (Erithracus Software, Horley, Surrey, UK). All the assays were calculated by the Morrison equation for competitive inhibition (eq. 1, [Morrison, 1969]). The amount of substrate used for the tight binding titration experiments follow all the requirements, where [S]<<Km for all enzymes, so the Kiapp=Ki.
# (§2) Range of Proteases Inhibited by Geminoids, Determination of Ki with Z-RR-MCA (Dengue 2 Protease) and Ac-RVRR-MCA (Furin) (SEQ ID NO:60).
# dengue 2 protease [3] = target: T1, dengue 2 protease; assay: as above; format: biochemical, dengue 2 virus; set-up: unit not given here; conditions: 10 μM Z-RR-MCA, pH 9.0, 37° C., initial activity in UAF/min
# DENV2 protease = target: T2, DENV2 protease (Dengue virus type 2, UniProt P14340); assay: DENV2 protease biochemical assay
# T2 construct: The active site of the dengue protease is in the N-terminal part of NS3
# T2 sequence (P14340 1476-1653): as above
# T2 sequence (P14340 1398-1437): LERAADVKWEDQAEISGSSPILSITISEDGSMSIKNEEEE
# DENV2 protease replicon = DENV2 protease replicon assay; format: cell-based; conditions: lowest concentration with observed activity in replicon assay
# thrombin = thrombin (Homo sapiens, UniProt P00734); assay: Thrombin inhibition, fluorimetric enzyme assay; format: biochemical; conditions: 36.5° C., read-out: Residual Activity (%) Thrombin; for remaining activity at 15 µM: 15 μM inhibitor
# Experimental: as §1, with “The enzyme was dissolved in 1 mL MES buffer (10 mM), 1 mM CaCl2, pH 7.0 at 36.5° C. Substrate” for “Substrate”, “Kiapp=Ki. […]” for “Kiapp=Ki.”
# trypsin = target: T3, trypsin (Bos taurus, UniProt P00760); assay: Trypsin inhibition, fluorimetric enzyme assay; format: biochemical; conditions: for remaining activity at 15 µM: 15 μM inhibitor
# T3 construct: gene PRSS1
# T3 sequence (P00760 24-246): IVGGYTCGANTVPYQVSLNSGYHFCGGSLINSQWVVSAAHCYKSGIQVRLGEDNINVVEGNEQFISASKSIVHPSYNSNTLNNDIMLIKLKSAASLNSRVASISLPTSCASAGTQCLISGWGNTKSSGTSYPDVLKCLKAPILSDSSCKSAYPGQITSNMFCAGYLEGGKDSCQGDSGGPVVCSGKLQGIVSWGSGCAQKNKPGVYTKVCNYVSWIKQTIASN
# Experimental: as §1, with “The enzyme was dissolved in 1 mL MES buffer (10 mM), 1 mM CaCl2, pH 7.0 at 36.5° C. Substrate” for “Substrate”
# The first group of gemini-like peptide amphiphiles to be screened was that of C16-K(G or A)nK-C16 (compound type C, with R1=n-C15H31, R2=n-C16H33). […] The results of the Ki determination for trypsin, dengue 2 protease, and human furin are given in Table 1A; some general data for the inhibition by this type of compounds are given in Table 1B. For most compounds in Table 1 the Ki could be derived from competitive inhibition experiments. Judging from the Ki values with the relatively simple substrate Z-RR-MCA, the best inhibitors for dengue 2 protease contain alanine (A) rather than glycine (G).
# human furin = human furin (Homo sapiens, UniProt P09958); assay: Human furin inhibition, hydrolysis of Ac-RVRR-MCA; format: biochemical; conditions: for activity at 5 µM: 5 μM inhibitor; for activity at 10 µM: 10 μM inhibitor; for activity at 15 µM: 15 μM inhibitor; for activity at 40 µM: 40 μM inhibitor
# Sequence of human furin (P09958 108-794): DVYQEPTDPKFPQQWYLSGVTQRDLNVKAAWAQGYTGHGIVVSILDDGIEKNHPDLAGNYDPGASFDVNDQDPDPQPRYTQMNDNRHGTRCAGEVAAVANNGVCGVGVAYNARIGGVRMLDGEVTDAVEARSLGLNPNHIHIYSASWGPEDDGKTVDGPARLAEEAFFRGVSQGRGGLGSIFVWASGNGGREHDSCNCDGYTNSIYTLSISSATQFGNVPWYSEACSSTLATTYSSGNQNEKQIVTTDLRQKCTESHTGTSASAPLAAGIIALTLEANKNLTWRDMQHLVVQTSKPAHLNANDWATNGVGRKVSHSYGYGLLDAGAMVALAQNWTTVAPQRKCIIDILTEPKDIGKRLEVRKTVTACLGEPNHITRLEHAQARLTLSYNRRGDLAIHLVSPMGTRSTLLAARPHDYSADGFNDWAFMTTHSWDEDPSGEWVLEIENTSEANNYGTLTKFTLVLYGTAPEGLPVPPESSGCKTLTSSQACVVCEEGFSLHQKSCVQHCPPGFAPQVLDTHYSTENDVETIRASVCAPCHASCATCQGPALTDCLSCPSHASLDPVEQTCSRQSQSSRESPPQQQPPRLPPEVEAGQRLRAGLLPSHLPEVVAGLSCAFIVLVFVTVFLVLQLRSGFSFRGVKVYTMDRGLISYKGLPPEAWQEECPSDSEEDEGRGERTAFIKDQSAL
# Experimental: as §1, with “The enzyme was dissolved in 1 mL MES buffer (10 mM), 1 mM CaCl2, pH 7.0 at 36.5° C. Substrate” for “Substrate”
# However, for furin we used a correction of Ki app, where [S]˜Km (eq. 2).
# as §2
# [4] = 36.5° C., read-out: Residual Activity (%) Trypsin
molecule,measurement,setting,value
"CCCCCCCCCCCCNC(=O)[C@H](CCCCN)NC(=O)[C@H](CCCCN)NC(=O)CCCCCCCCCCC [C12KKC12, n-C11H23C(O)-Lys-Lys-(n-C12H25).2TFA]",% recovery in presence of Triton,dengue 2 protease [1]; 30 μM of inhibitor,82%
same,Activity with 0.05% Triton,dengue 2 protease [1]; 30 μM of inhibitor,180
same,Ki,dengue 2 protease [2],132 µM
same,Activity with inhibitors,dengue 2 protease [3]; 30 μM of inhibitor,0
"CCCCCCCCCCCCCCCCNC(=O)[C@H](CCCCN)NC(=O)CNC(=O)[C@H](CCCCN)NC(=O)CCCCCCCCCCCCCCC [C16-KGK-C16, C15H31CO-KGK-NH—C16H33]",inhibition at 50 µM,DENV2 protease; 50 μM inhibitor,103%
same,% recovery in presence of Triton,dengue 2 protease [1]; 25 μM of inhibitor,48%
same,Activity with 0.05% Triton,dengue 2 protease [1]; 25 μM of inhibitor,90
same,Ki,dengue 2 protease [2],1.56 µM
same,activity at 5 µM,dengue 2 protease [2]; 36.5° C.,75%
same,activity at 10 µM,dengue 2 protease [2]; 36.5° C.,54%
same,activity at 15 µM,dengue 2 protease [2]; 36.5° C.,40%
same,activity at 20 µM,"dengue 2 protease [2]; 20 μM inhibitor, 36.5° C.",29%
same,Activity with inhibitors,dengue 2 protease [2],50
same,activity at 40 µM,dengue 2 protease [2]; 36.5° C.,2%
same,Replicon activity [μM] (1),DENV2 protease replicon,1.0 µM
same,remaining activity at 15 µM,thrombin,75%
same,remaining activity at 55 µM,thrombin; 55 μM inhibitor,61%
same,remaining activity at 85 µM,thrombin; 85 μM inhibitor,40%
same,Ki,trypsin,41.6 µM
same,remaining activity at 15 µM,trypsin; [4],76%
same,remaining activity at 55 µM,"trypsin; 55 μM inhibitor, 36.5° C., read-out: Residual Activity (%) Trypsin",40%
same,remaining activity at 85 µM,"trypsin; 85 μM inhibitor, 36.5° C., read-out: Residual Activity (%) Trypsin",24%
same,activity at 5 µM,human furin; 36.5° C.,53%
same,activity at 10 µM,human furin; 36.5° C.,18%
same,activity at 15 µM,human furin; 36.5° C.,7%
same,activity at 20 µM,"human furin; 20 μM inhibitor, 36.5° C.",4%
same,activity at 40 µM,human furin; 36.5° C.,0%
"CCCCCCCCCCCCNC(=O)[C@H](CCCCN)NC(=O)[C@H](C)NC(=O)[C@H](C)NC(=O)[C@H](CCCCN)NC(=O)CCCCCCCCCCC [C12KA2KC12, n-C11H23C(O)-Lys-(Ala)2-Lys-(n-C12H25).2TFA] (HELM PEPTIDE1{[CCCCCCCCCCCC(=O)[*:2]].K.A.A.K.[CCCCCCCCCCCCN[*:1]]}$$$$V2.0)",% recovery in presence of Triton,dengue 2 protease [1]; 20 μM of inhibitor,95%
same,Activity with 0.05% Triton,dengue 2 protease [1]; 20 μM of inhibitor,216
same,Ki,dengue 2 protease [2],11.6 µM
same,Activity with inhibitors,dengue 2 protease [3]; 20 μM of inhibitor,5
CCCCCCCCCCCCCCCCNC(=O)[C@H](CCCCN)NC(=O)[C@H](CCCCN)NC(=O)[C@H](CCCCN)NC(=O)[C@H](Cc1ccccc1)NC(=O)CCCCCCCCCCCCCCC [C16-FKKK-C16] (HELM PEPTIDE1{[CCCCCCCCCCCCCCCC(=O)[*:2]].F.K.K.K.[CCCCCCCCCCCCCCCCN[*:1]]}$$$$V2.0),IC50,DENV2 protease,0.2 µM
same,inhibition at 50 µM,DENV2 protease; 50 μM inhibitor,95.8%
same,Replicon activity [μM] (1),DENV2 protease replicon,5.0 µM
"C16-AKAK-C16: geminoid in shorthand Cp-Zn-Cq, peptide SEQ ID NO: 74",% Inhibition at 50 μM (2),DENV2 protease; 50 μM inhibitor,103.7%
same,Replicon activity [μM] (1),DENV2 protease replicon,3.0 µM
CCCCCCCCCCCCCCCCNC(=O)[C@H](CCCCN)NC(=O)[C@H](CCC(N)=O)NC(=O)[C@H](C)NC(=O)[C@H](CCCNC(=N)N)NC(=O)CCCCCCCCCCCCCCC [C16-RAQK-C16] (HELM PEPTIDE1{[CCCCCCCCCCCCCCCC(=O)[*:2]].R.A.Q.K.[CCCCCCCCCCCCCCCCN[*:1]]}$$$$V2.0),IC50,DENV2 protease,0.6 µM
same,inhibition at 50 µM,DENV2 protease; 50 μM inhibitor,102%
same,Replicon activity [μM] (1),DENV2 protease replicon,10.0 µM
"CCCCCCCCCCCCCCCCNC(=O)[C@H](CCCNC(=N)N)NC(=O)[C@H](CCCNC(=N)N)NC(=O)CCCCCCCCCCCCCCC [C16RRC16, n-C15H31C(O)-Arg-Arg-(n-C16H33).2TFA]",% recovery in presence of Triton,dengue 2 protease [1]; 20 μM of inhibitor,74%
same,Activity with 0.05% Triton,dengue 2 protease [1]; 20 μM of inhibitor,148
same,Ki,dengue 2 protease [2],0.8 µM
same,Activity with inhibitors,dengue 2 protease [3]; 20 μM of inhibitor,48
CCCCCCCCCCCCCCCCNC(=O)[C@H](CCCCN)NC(=O)[C@H](C)NC(=O)[C@H](C)NC(=O)[C@H](CCCCN)NC(=O)CCCCCCCCCCCCCCC [C16-KAAK-C16] (HELM PEPTIDE1{[CCCCCCCCCCCCCCCC(=O)[*:2]].K.A.A.K.[CCCCCCCCCCCCCCCCN[*:1]]}$$$$V2.0),inhibition at 50 µM,DENV2 protease; 50 μM inhibitor,97.7%
same,% recovery in presence of Triton,dengue 2 protease [1]; 25 μM of inhibitor,56%
same,Activity with 0.05% Triton,dengue 2 protease [1]; 25 μM of inhibitor,100
same,Ki,dengue 2 protease [2],0.63 µM
same,activity at 2.5 µM,"dengue 2 protease [2]; 2.5 μM inhibitor, 36.5° C.",89%
same,activity at 5 µM,dengue 2 protease [2]; 36.5° C.,79%
same,activity at 10 µM,dengue 2 protease [2]; 36.5° C.,68%
same,activity at 15 µM,dengue 2 protease [2]; 36.5° C.,45%
same,Activity with inhibitors,dengue 2 protease [2],0
same,activity at 40 µM,dengue 2 protease [2]; 36.5° C.,10%
same,Replicon activity [μM] (1),DENV2 protease replicon,3.0 µM
same,remaining activity at 15 µM,thrombin,80%
same,remaining activity at 40 µM,thrombin; 40 μM inhibitor,55%
same,remaining activity at 80 µM,thrombin; 80 μM inhibitor,39%
same,remaining activity at 15 µM,trypsin; [4],64%
same,remaining activity at 40 µM,"trypsin; 40 μM inhibitor, 36.5° C., read-out: Residual Activity (%) Trypsin",20%
same,remaining activity at 80 µM,"trypsin; 80 μM inhibitor, 36.5° C., read-out: Residual Activity (%) Trypsin",7%
same,activity at 2.5 µM,"human furin; 2.5 μM inhibitor, 36.5° C.",94%
same,activity at 5 µM,human furin; 36.5° C.,83%
same,activity at 10 µM,human furin; 36.5° C.,77%
same,activity at 15 µM,human furin; 36.5° C.,69%
same,activity at 40 µM,human furin; 36.5° C.,3%
same,Ki,"human furin; 10 mM Mes.NaOH, pH 7.0, 2.35 μM Ac-RVRR-MCA, 37° C., read-out: Ki hFurin",0.97 µM
"CCCCCCCCCCCCCCCCNC(=O)[C@H](CCCNC(=N)N)NC(=O)[C@H](C)NC(=O)[C@H](C)NC(=O)[C@H](C)NC(=O)[C@H](C)NC(=O)[C@H](CCCNC(=N)N)NC(=O)CCCCCCCCCCCCCCC [C16RA4RC16, n-C15H31C(O)-Arg-(la)4-Arg-(n-C16H33).2TFA] (HELM PEPTIDE1{[CCCCCCCCCCCCCCCC(=O)[*:2]].R.A.A.A.A.R.[CCCCCCCCCCCCCCCCN[*:1]]}$$$$V2.0)",% recovery in presence of Triton,dengue 2 protease [1]; 20 μM of inhibitor,68%
same,Activity with 0.05% Triton,dengue 2 protease [1]; 20 μM of inhibitor,164
same,Ki,dengue 2 protease [2],1.4 µM
same,Activity with inhibitors,dengue 2 protease [3]; 20 μM of inhibitor,22
CCCCCCCCCCCCCCCCNC(=O)[C@@H](CO)NC(=O)[C@@H](CCCCN)NC(=O)[C@@H](C)NC(=O)[C@@H](CCCCN)NC(=O)[C@@H](CC(C)C)NC(=O)CCCCCCCCCCCCCCC [C16-D-LKAKS-C16] (HELM PEPTIDE1{[CCCCCCCCCCCCCCCC(=O)[*:2]].[dL].[dK].[dA].[dK].[dS].[CCCCCCCCCCCCCCCCN[*:1]]}$$$$V2.0),inhibition at 50 µM,DENV2 protease; 50 μM inhibitor,97.4%
same,Replicon activity [μM] (1),DENV2 protease replicon,3.0 µM
